Values quoted from earlier work in patent US20250345298A1, “APOE4 CORRECTORS AND METHODS OF USE” (Alzheon, Inc., priority 2022, published 2025).

Row | SMILES | safety in human subjects | efficacy in Alzheimer's disease trials (human clinical trials for AD)
1 | CC(C)[C@H](N)C(=O)NCCCS(=O)(=O)O [ALZ-801, valyl-3-amino-1-propanesulfonic acid] | safe | –
2 | NCCCS(=O)(=O)O [Tramiprosate, 3-amino-1-propanesulfonic acid] | safe | suggested efficacy in at least some patients
